According to patent publication US10385108B2, “Peptide analogs of alpha-melanocyte stimulating hormone” (Genzyme Corporation, priority 2008, dated 2019):
Like-named read-outs stand apart in the source and are kept apart here.

Key:
[1] = test system: B16-F1 murine melanoma cells; assay: Intracellular cAMP in B16-F1 melanoma cells; type: cell-based
Procedure: B16-F1 (melanoma cell line) cells from American Type Culture Collection (Manassas, Va.) were seeded into flat bottom 96 well plates at 5×10^4/well and cultured overnight in DMEM (Cambrex, Walkersville, Md.) supplemented with 2 mM glutamine, antibiotics (100 U/ml penicillin and 100 […]) and 10% heat-inactivated fetal bovine serum (Invitrogen, Grand Island, N.Y.). […] Cells were lysed and intracellular cAMP levels were measured by an enzyme immunoassay kit (Amersham Biosciences, Piscataway, N.J.). Forskolin (Sigma, St. Louis, Mo.) at 100 μM served as positive controls.
cAMP levels in B16-F1 melanoma cells after treatment with native α-MSH, RI α-MSH, or a scrambled control peptide were examined. The […] melanoma cell line expresses a high number of MCR1 receptors (3000-4000 receptors/cell) compared with macrophages cell lines which express only 100-200 receptors/cell. Therefore we selected to examine the effect of the RI α-MSH treatment on the melanoma cell line. Murine melanoma B16-F1 cells were treated with native α-MSH, RI α-MSH, or control scrambled peptide at concentrations 1 pg/ml-1 μg/ml. After 30 min, cells were lysed and intracellular cAMP was measured by an enzyme immunoassay. […] However, a higher concentration of RI α-MSH (100 ng/ml) was necessary to increase cAMP compared with native α-MSH which increased cAMP at a 10 pg/ml concentration. This difference in concentration of peptide necessary to increase cAMP levels may be the result of the binding affinity to the MCR1 receptor.
Murine melanoma B16-F1 cells were treated with native α-MSH, RI α-MSH, scrambled peptide control, KPV, or alanine substituted peptides of RI α-MSH at 1 μg/ml (FIG. 7B). […] Peptides designated 810, 811, and 812 have alanine substitutions in the central core tetrapeptide sequence (D-Trp D-Arg D-Phe D-His region; AA 5-8) (variant disclosed in SEQ ID NO:2) proposed to be involved in native α-MSH binding to the melanocortin receptor and its biological activity. […] The residues in the core tetrapeptide (wrfh) (variant disclosed in SEQ ID NO:2) and to a lesser extent, the methionine 4 of RI-MSH are critical for binding to MC1R.
B16-F1 murine melanoma cells were cultured into 96 well plates 5×10^4 cells/well overnight in media with L-glutamine and pen/strep and FBS. Media was removed and new media with IBMX was added to the cells for 1 hr. Cells were then treated with RI α-MSH, or RI α-MSH peptide analogs (890, 891, 892, 893, 894 or 895). Cells were lysed after 30 min using a cAMP assay kit and supernatant were used in the assay. Forskolin at 10 μM served as positive controls.
Intracellular cAMP was measured using a cAMP competition Assay Kit (Amersham Biosciences). All cell lysate samples were diluted 1:100 for analysis.
Murine melanoma B16-F1 cells were treated with RI α-MSH, or RI α-MSH analogs (869, 872, 880, 878, 886 and 890-895) at a concentration range of 10^−4-10^−11 M. cAMP levels from cells treated with RI α-MSH, or RI α-MSH analogs. […] See FIG. 22 for graphical data and Table 2 for EC50 data.

B10.RIII mice = test system: B10.RIII mice
Procedure: Female B10.RIII were injected subcutaneously at two sites (between shoulder blades and in pelvic region) with a total of 200 μg interphotoreceptor binding protein peptide (IRBP) 161-180 (New England Peptide; Fitchburg, Mass.), respectively in 2 mg/ml complete Freund's adjuvant (CFA; Sigma, St. Louis, Mo.) with mycobacterium tuberculosis H37Ra (Difco, Detroit, Mich.).
The eyes of mice are dilated using one or two drops of Mydriacyl 1% (Alcon; Humacao, Puerto Rico) and rested in a darkened room for approximately 5 min. Mice are manually restrained and the retinas of both eyes are visualized using an indirect ophthalmoscope with a 78 diopter lens. The eyes are scored for inflammation using a progressive scoring system between 0-5. Score 0: Normal retina. Score 1: Vascular inflammation proximal to the optic nerve. Score 2: <5 inflammatory lesions confined to one quadrant of the eye. Score 3: >5 inflammatory lesions in more than one quadrant of the eye. Score 4: Inflammatory lesions are contiguous. Score 5: Retinal detachment. Whole eyes from mice were harvested and placed in PBS. The eyes were embedded in OCT media for frozen fixation. 5-μm sections were cut through the papillary-optic nerve plane and stained with hematoxylin and eosin.
Uveitis was induced in B10.RIII mice with an injection of IRBP 161-180 and CFA.
Current forms of therapy for uveitis include corticosteroids and immunosuppressive agents. […] Uveitis was induced in B10.RIII mice with IRBP161-180 and CFA injections. […] Mice were treated daily for 21 days.
EAU was induced in female B10.RIII mice with IRBP 161-180.
Uveitis was induced in B10.RIII mice with IRBP161-180 and CFA injections. […] Individual weights of the mice were recorded at 4 timepoints throughout the course of disease.
B10.RIII mice were injected with IRBP161-180 and CFA to induce uveitis. […] Treatment was initiated at peak time of disease when mice reached eye scores of 4 which included inflammatory lesions throughout the posterior segment of the eye and possible hemorrhaging.

MC3R = MC3R (Homo sapiens, UniProt P41968); assay: Competitive binding with 125I-NDP-MSH, HEK293 membrane preparations, MC3R
Sequence of MC3R (P41968 whole entry): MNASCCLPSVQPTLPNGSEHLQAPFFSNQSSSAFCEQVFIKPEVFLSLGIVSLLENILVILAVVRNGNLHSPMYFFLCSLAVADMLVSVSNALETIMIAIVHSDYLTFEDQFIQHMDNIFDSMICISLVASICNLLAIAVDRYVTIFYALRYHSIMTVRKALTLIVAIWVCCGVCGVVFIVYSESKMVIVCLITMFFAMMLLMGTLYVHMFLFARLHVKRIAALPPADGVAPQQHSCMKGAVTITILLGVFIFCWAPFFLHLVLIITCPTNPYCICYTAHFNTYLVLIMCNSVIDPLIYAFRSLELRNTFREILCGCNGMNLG
Procedure: Binding analysis was done by Cerep laboratories (Paris, France) with coded samples.
The mixtures were filtered through 96-well GFC filters (Millipore, Billerica, Mass.), washed 3 times with binding buffer without BSA, dried and counted.
A competitive binding assay using a MCR panel including MCR 1, 3, 4, and 5 was performed.

CSCC[C@@H](NC(=O)[C@@H](CCC(=O)O)NC(=O)[C@@H](Cc1c[nH]cn1)NC(=O)[C@@H](Cc1ccccc1)NC(=O)[C@@H](CCCNC(=N)N)NC(=O)[C@@H](Cc1c[nH]c2ccccc12)NC(=O)CNC(=O)[C@@H](CCCCN)NC(=O)[C@H]1CCCN1C(=O)[C@H](NC(C)=O)C(C)C)C(=O)N[C@H](CO)C(=O)N[C@H](Cc1ccc(O)cc1)C(=O)N[C@H](CO)C(N)=O [RI-MSH, vpkGwrfhemsys]
cAMP levels, dose response (in words) ([1]; 1 pg/ml-1 μg/ml, 30 min, vs untreated or scrambled peptide): significantly increased cAMP levels in a dose dependent manner | concentration necessary to increase cAMP ([1]; 30 min): 100 ng/mL | EC50 ([1]; B16-F1 cells, 10^-4-10^-11 M, 30 min, IBMX): 9.7 µM | cAMP levels (in words) ([1]; peptide at 1 μg/ml): significantly elevated | uveitis course (in words) (B10.RIII mice; 3 μg/mouse i.p. daily from eye scores of 4): did not reduce or inhibit disease | uveitis course (in words) (B10.RIII mice; 10 μg/mouse i.p. daily from eye scores of 4): rapidly ameliorated uveitis | mean clinical eye scores vs scrambled peptide (in words) (B10.RIII mice; 100 μg/mouse i.p. daily for 13 days from eye scores 2-3, days 15, 21 and 23): significant reduction | uveitis course (in words) (B10.RIII mice; 100 μg/mouse i.p. daily from eye scores of 4): rapidly ameliorated uveitis | mice with individual maximum eye scores ≤1 (B10.RIII mice; 100 μg/mouse i.p. daily, day 23 after disease induction): 75% | efficacy in uveitis, treatment at onset of disease (in words) (B10.RIII mice; 100 μg/mouse i.p., from eye score 1, data not shown): had efficacy in uveitis | mean clinical eye scores vs PBS (in words) (B10.RIII mice; 100 μg/mouse i.v. daily from eye scores of 2): significant reduction of mean clinical eye scores | eye score in retina images (median of group) (B10.RIII mice; 100 μg/mouse i.v. daily from late stage, day 13 after start of treatment): 1 | histological examination of the eyes (in words) (B10.RIII mice; 100 μg/mouse i.v. daily, 10 days after start of treatment): reduced pathology in the eye | mice with eye scores of 3 or greater (B10.RIII mice; 100 μg/mouse i.v. daily, day 13 after start of treatment): 2 of the 11 | mice with a maximum eye score of 3 or greater (B10.RIII mice; 100 μg/mouse i.v. daily, day 16, four days after start of treatment): 0 of the 8 | Ki (MC3R): > 30 µM | binding to MCR-3 (in words) (MC3R; MCR panel 1, 3, 4, 5): bind only to MCR-1
